Assay results taken from patent EP2671872A1, “Fluorinated pyridylacetylene derivatives as tracers” (Eidgenössische Technische Hochschule Zürich (ETH), priority 2012, dated 2013).
Read-outs that look alike come from different tables or passages of the source.

What was measured:
[1] = defluorination in vivo in rats
[2] = defluorination by human liver microsomes; type: in vitro ADME
[3] = defluorination by rat liver microsomes; type: in vitro ADME
[4] = defluorination by human S9 fraction of liver homogenate; type: in vitro ADME
mGluR5 [5] = target: T1, mGluR5 (Rattus norvegicus, UniProt P31424); experiment: PET scan of rat brain, kinetic behavior (ratio of specifically bound to free ligand); type: in vivo, Wistar rat; set-up: from tissue; host or cells: brain of living male Wistar rat (in vivo PET); conditions: tail vein injection
Procedure: A male Wistar rat (423 g) was injected 23.1 MBq [^18F]PSS232 into a tail vein and PET was acquired from 0 to 90 min post injection. […] Only brain is shown. SUV denotes standardized uptake value.
PET scans analogous to those of Example 3 were recorded after administration of [^18F]PSS232 (Fig. 7, red curves, circles and diamonds), [^11C]ABP688 (Fig. 7, black curves, squares and triangles) and [^18F]FDEGPECO (Fig. 7, blue curves, crosses and crossed bars).
Fig. 9 illustrates the favorable kinetic behavior of PSS232. The ratio of specifically bound PSS232 in caudate putamen (striatum) to free ligand PSS232 (radioactivity in cerebellum is considered to originate from free ligand) becomes constant at about 40 min after injection, thus allowing the estimation of the binding potential (BP). This is an advantage over [^11C]ABP688 where the equilibrium is not reached within 60 min and the short physical half-life of ^11C (20 min) limits the scan duration.

rat mGluR5 = target: T2, rat mGluR5 (Rattus norvegicus, UniProt P31424); experiment: displacement assay with rat brain membranes and [^3H]ABP688; type: binding; conditions: radioligand of the displacement assay, used at 1.6 nM, rat brain membranes
T2 construct: displacement assay with rat brain membranes and 1.6 nM [^3H]ABP688; from tissue; host or cells: rat brain membranes

[6] = rodents; background; cited from earlier work
[7] = monkeys; background; cited from earlier work
[8] = humans; background, relative to rodents and monkeys; cited from earlier work
mGluR5 [9] = target: T1, mGluR5; conditions: background, literature; cited from earlier work
[10] = rats; background, literature; cited from earlier work
mGluR5 [11] = target: T1, mGluR5; experiment: ex vivo brain distribution with MTEP blockade (gamma counter); type: in vivo, Rats; set-up: from tissue; host or cells: rat brain regions after in vivo injection; conditions: 45 min after injection
Procedure: Rats were pre-injected (tail vein) with 10 mg/kg MTEP (a specific mGluR5 antagonist) before [^18F]PSS232 injection (= blockade, see green, right bars in Fig. 10) or they were pre-injected with vehicle (= baseline, see blue, left, bars in Fig. 10).

mGluR5 [12] = target: T1, mGluR5; experiment: in vitro autoradiography of rat brain slices; type: binding; set-up: from tissue; host or cells: brain of living animal (in vivo PET, tail vein injection); conditions: about 1 nM tracer, 20 µm slices; compared with 100 nM ABP688 (mGluR5 ligand) or JNJ16259685 (mGluR1 ligand)
Procedure: In Fig. 4 two rat brain slices (20 µm) each were incubated with about 1 nM [^18F]PSS232 in the absence of any unlabeled compound (top) or with 100 nM of the specific mGluR5 ligand ABP688 (middle) or of mGluR1 ligand JNJ16259685 (bottom). […] It should be noted that mGluR1 is the receptor with most similar amino acid sequence to mGluR5.

mGluR5 [13] = target: T1, mGluR5; experiment: ex vivo brain distribution after MMPEP pre-injection at various doses (receptor occupancy); conditions: estimated from fit of MMPEP dose curve; 45 min after injection

T1 sequence (P31424 21-1203): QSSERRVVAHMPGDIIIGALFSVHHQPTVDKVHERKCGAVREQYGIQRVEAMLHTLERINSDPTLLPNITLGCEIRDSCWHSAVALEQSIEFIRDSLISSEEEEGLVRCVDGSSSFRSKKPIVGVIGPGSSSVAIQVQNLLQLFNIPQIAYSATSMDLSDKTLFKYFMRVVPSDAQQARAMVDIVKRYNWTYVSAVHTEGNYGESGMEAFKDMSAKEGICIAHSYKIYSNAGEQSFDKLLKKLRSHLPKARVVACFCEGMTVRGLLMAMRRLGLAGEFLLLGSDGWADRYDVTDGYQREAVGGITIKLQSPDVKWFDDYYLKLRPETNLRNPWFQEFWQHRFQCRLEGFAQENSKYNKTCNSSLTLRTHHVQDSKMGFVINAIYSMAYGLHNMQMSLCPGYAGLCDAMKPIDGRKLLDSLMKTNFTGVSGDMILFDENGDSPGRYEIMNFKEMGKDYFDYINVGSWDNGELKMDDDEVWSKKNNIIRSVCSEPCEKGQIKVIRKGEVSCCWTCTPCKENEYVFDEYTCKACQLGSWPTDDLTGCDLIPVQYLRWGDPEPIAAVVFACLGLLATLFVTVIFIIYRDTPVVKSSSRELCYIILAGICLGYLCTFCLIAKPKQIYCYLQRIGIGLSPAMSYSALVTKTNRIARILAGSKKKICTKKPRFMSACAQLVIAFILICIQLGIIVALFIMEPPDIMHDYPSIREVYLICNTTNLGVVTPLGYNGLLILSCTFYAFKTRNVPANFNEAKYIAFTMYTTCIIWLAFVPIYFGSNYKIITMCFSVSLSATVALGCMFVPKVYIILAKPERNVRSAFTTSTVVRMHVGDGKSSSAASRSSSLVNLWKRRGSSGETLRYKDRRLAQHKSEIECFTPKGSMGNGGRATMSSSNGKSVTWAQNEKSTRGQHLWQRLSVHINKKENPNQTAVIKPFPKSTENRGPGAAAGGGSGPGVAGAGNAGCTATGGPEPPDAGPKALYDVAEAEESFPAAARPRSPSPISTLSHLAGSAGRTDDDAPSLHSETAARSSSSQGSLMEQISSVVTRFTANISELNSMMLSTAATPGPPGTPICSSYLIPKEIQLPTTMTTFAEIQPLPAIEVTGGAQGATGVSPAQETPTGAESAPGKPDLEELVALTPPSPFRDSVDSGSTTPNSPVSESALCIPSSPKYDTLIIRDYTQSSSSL
T2 sequence (P31424 21-1203): as above

FCCOCCCO/N=C1/C=C(C#Cc2ccccn2)CCC1 [PSS232, (E)-3-(pyridin-2-ylethynyl)-cyclohex-2-enone O-(3-(2-fluoroethoxy)propyl) oxime]
defluorination in vivo [1]: does not show significant defluorination
defluorination [2]: not significantly defluorinated
defluorination [3]: not significantly defluorinated
defluorination [4]: not significantly defluorinated
time after injection at which ratio of specifically bound (caudate putamen/striatum) to free ligand (cerebellum) becomes constant (equilibrium) (mGluR5 [5]): about 40 min

CON=C1C=C(C#Cc2cccc(C)n2)CCC1 [[^3H]ABP688]
Kd (rat mGluR5): 1.7 nM

Cc1cccc(C#CC2=C/C(=N/O[11CH3])CCC2)n1 [[^11C]ABP688, (E)-3-((6-methylpyridin-2-yl)ethynyl)cyclohex-e-enone-O-^11C-methyl oxime]
time after injection at which ratio of specifically bound (caudate putamen/striatum) to free ligand (cerebellum) becomes constant (equilibrium) (mGluR5 [5]): > 60 min

N#Cc1cc(F)cc(C#Cc2csc(C[18F])n2)c1 [[^18F]-SP203]
defluorination [6]: significant defluorination
defluorination [7]: significant defluorination
defluorination [8]: to a lesser extent

[18F]CCOCCO/N=C1/C=C(C#Cc2ccccn2)CCC1 [[^18F]FDEGPECO, (E)-3-(Pyridin-2-ylethynyl)-cyclohex-2-enone-O-2-(2-^18F-fluoroethoxy)ethyl oxime]
mean residence time at the target site (mGluR5 [9]): relatively short

[18F]CCCOCCO/N=C1/C=C(C#Cc2ccccn2)CCC1 [[^18F]PSS223, (E)-3-(pyridin-2-ylethynyl)cyclohex-2-enone O-(2-(3-^18F-fluoropropoxy)ethyl) oxime]
defluorination in vivo [10]: rapid defluorination

FCCOCCCO/N=C1/C=C(C#Cc2ccccn2)CCC1 [[^18F]PSS232, (E)-3-(pyridin-2-ylethynyl)-cyclohex-2-enone O-(3-(2-fluoroethoxy)propyl) oxime]
average specific binding in striatum (mGluR5 [11]; baseline (vehicle) vs blockade with 10 mg/kg MTEP): 86.6%
accumulation in mGluR5-rich domains of rat brain slices (mGluR5 [12]): high, mGluR5-selective accumulation
maximal specific binding in striatum (mGluR5 [13]): 78.5%

MTEP
radioactivity of brain regions after MTEP pre-injection (mGluR5 [11]; 10 mg/kg MTEP tail vein before [^18F]PSS232): all brain regions have similar radioactivity as in cerebellum
